In PMC10652874, “Investigation into the mechanism of action of the antimicrobial peptide epilancin 15X” (Frontiers in Microbiology, 2023):

Experiments:
[1] = tested on: S. epidermidis ATCC 12228; assay: MIC determination in 96-well microtiter plate; format: cell-based, Staphylococcus epidermidis; conditions: 37°C, 10^5 CFU/mL, OD600 after 18 h
[2] = tested on: protein biosynthesis in S. carnosus TM300; assay: Macromolecular synthesis assay: 14C-L-amino acids incorporation into protein; format: cell-based, Staphylococcus carnosus; conditions: S. carnosus TM300, 2× MIC, three independent experiments
Protocol: Radiolabel incorporation experiments were carried out similarly as previously described but using S. carnosus ([Wu et al., 2019]). The OD600 of parallel nonradioactive cultures was measured at each time point to normalize the measured radioactivity and minimize effects due to cell death and growth inhibition. The radiolabeled reagents and their corresponding positive and negative antibiotic controls were as follows. […] All experiments were conducted independently three times.
Figure S3. Thre e in de pen den t ex perime nts of incorporation of (A) 14C- acetic acid into fatty acids, (B) 14C- thymi din e into D NA, (C) 3H-uridi ne into RNA, (D) 14C- lab el ed ami no acids into protei n, and (E) 14C- label ed GlcNAc into cell w all in S. carnosus TM300 cells treated with vario u s antimicro bia l agents. T he p ercent i nco rpo ratio n at 0 min was measured after incubati ng the cel l cultur e with 0.8 μCi/mL radioactive precursors for 15 min. Then 0.5x, 1x, 2x, or 4x MIC epilanci n 15X and 2x MIC controls were added to the cell cultur e (t=0), and t he percent incorporation was measur ed ov er time. Positive controls a re gr een and negative controls are black (cells o nly) an d blu e (co mpo und w ith mo d e o f actio n unr elate d to th e a ssay i n que stio n). […]

[3] = tested on: fatty acid biosynthesis in S. carnosus TM300; format: cell-based, Staphylococcus carnosus; conditions: S. carnosus TM300, 2× MIC, normalized to OD600, three independent experiments
Protocol: Thre e in de pen den t ex perime nts of incorporation of (A) 14C- acetic acid into fatty acids, (B) 14C- thymi din e into D NA, (C) 3H-uridi ne into RNA, (D) 14C- lab el ed ami no acids into protei n, and (E) 14C- label ed GlcNAc into cell w all in S. carnosus TM300 cells treated with vario u s antimicro bia l agents. T he p ercent i nco rpo ratio n at 0 min was measured after incubati ng the cel l cultur e with 0.8 μCi/mL radioactive precursors for 15 min. […] Positive controls a re gr een and negative controls are black (cells o nly) an d blu e (co mpo und w ith mo d e o f actio n unr elate d to th e a ssay i n que stio n). T he ra dio activity o f each a nti bio tic - treated cultur e was normalized based on it s OD600 at each time point compared to th e unt reate d ce ll cultur e.

[4] = tested on: B. subtilis BSF2470; assay: Membrane permeability study with propidium iodide (flow cytometry); format: cell-based, Bacillus subtilis; conditions: B. subtilis BSF2470, 20 min exposure, 0.5x, 1x, 4x MIC, n = 3
Protocol: Cultures of S. carnosus TM300 and B. subtilis BSF2470 were grown to OD600 1.0 and diluted to OD600 0.1 in fresh BHI or LB medium, respectively. The culture was then combined with a final concentration of 25 μM PI (ThermoFisher P3566), 1 mM HEPES, and 1 mM glucose. […] Another two tubes were prepared without antibiotic treatment as controls. The culture was analyzed with a BD Biosciences LSR II flow cytometer for S. carnosus and a BD Biosciences LSRFortessa for B. subtilis using excitation at 488 nm with an argon laser and measurement of emission through a band-pass filter at 695/40 nm. A minimum of 30,000 events were detected for each sample. The experiment was repeated three times, and the mean PI uptake value was determined. The results were calibrated such that the mean PI uptake from the 4x MIC nisin-treated cell culture was set as 100% PI uptake.

[5] = tested on: Staphylococcus simulans; conditions: ref Wang et al., 2023; cited from earlier work
Excerpt: (§1) Recent studies have shown that epilancin 15X activity varies depending on the indicator strain, with bacteriostatic activity against Staphylococcus simulans and Micrococcus flavus but bactericidal activity against Bacillus megaterium ([Wang et al., 2023]).

[6] = tested on: Micrococcus flavus; conditions: ref Wang et al., 2023; cited from earlier work
Excerpt: as §1

[7] = tested on: Bacillus megaterium; conditions: ref Wang et al., 2023; cited from earlier work
Excerpt: as §1

[8] = tested on: LiaRS response in B. subtilis BSF2470; assay: LiaRS disk diffusion reporter assay (β-galactosidase, X-Gal); format: cell-based, Bacillus subtilis; conditions: 37°C overnight
Protocol: The LiaRS response was determined via disk diffusion as described previously ([Mascher et al., 2004]). Briefly, B. subtilis strain BSF2470 was grown in LB supplemented with erythromycin (1 μg/mL) overnight at 37°C with shaking. A total of 20 μL of overnight culture was mixed with 100 μL of 20 mg/mL X-Gal (dissolved in DMF) and 5 mL of 0.7% soft LB agar then poured onto a 1.5% LB agar base. The plates were allowed to cool and dry at room temperature for 20 min. The desired molecule was either spotted on a filter paper disk and placed on top of the agar or directly spotted on the agar. The following molecules were tested: ampicillin, 0.5 μL on filter disk, 1 μL directly spotted, 100 mg/mL; compound 1771/LtaS-IN-1, 4 μL, 20 mM (dissolved in DMSO); epilancin 15X, 4 μL, 5 mM; vancomycin, 1 μL, 100 mg/mL; nisin, 4 μL, 2 mM; bacitracin, 4 μL on filter disk, 5 μL directly spotted, 100 mg/mL; water, 5 μL; magainin 2, 10 μL, 1 mM; melittin, 10 μL, 1 mM. The plate was incubated at 37°C overnight. After overnight incubation, the plate was imaged. Compound 1771 (CS-0114233) was purchased from ChemScene LLC.
To investigate the effect of epilancin 15X on the cell envelope, we employed the two-component LiaRS reporter system in B. subtilis (lipid II cycle interfering antibiotic response regulator and sensor; [Mascher et al., 2004]). Briefly, the LiaRS assay is a disk diffusion assay used to screen for the ability of compounds to induce β-galactosidase expression in engineered B. subtilis BSF2470 ([Mascher et al., 2004]). Molecules that produce a blue ring around the edge of the zone of growth inhibition are believed to interfere with the lipid II cycle ([Hachmann et al., 2009]). […] The compound 1771, also called LtaS-IN-1, inhibits lipoteichoic acid (LTA) synthesis ([Richter et al., 2013]) and to the best of our knowledge has not been tested in the LiaRS assay.

[9] = tested on: S. carnosus TM300; assay: Membrane potential study with DiOC2 (flow cytometry); format: cell-based, Staphylococcus carnosus; conditions: S. carnosus TM300, 20 min, 0.5x, 1x, 4x MIC, n = 3
Protocol: Cultures of S. carnosus TM300 were grown to OD600 1.0 and diluted to OD600 0.1 in fresh BHI medium. The culture was then combined with 30 μM 3,3′-diethyloxacarbocyanine (DiOC2, ThermoFisher D14730) and incubated for 20 min. […] Another two tubes were prepared without antibiotic treatment as controls. The culture was analyzed with a BD Biosciences LSR II flow cytometer using excitation at 488 nm with an argon laser and measurement of emission through a band-pass filter at 616/20 nm. A minimum of 30,000 events were detected for each sample. The experiment was repeated three times, and the mean red/green fluorescence ratio was determined.

With Epilancin 15X the MIC [1] was 0.62 µM, the “protein biosynthesis (14C-L-amino acid incorporation)” value [2] was “considerably stronger effect than that observed with the respective negative controls” and the “fatty acid biosynthesis (14C-acetic acid incorporation)” value [3] was “decrease”. For the same substance, the “PI uptake (membrane disruption)” value [4] was “increase”, the “type of antimicrobial activity” value [5] was “bacteriostatic” and the “type of antimicrobial activity” value [6] was “bacteriostatic”. For the same substance, the “type of antimicrobial activity” value [7] was “bactericidal”, the “LiaRS response (blue ring at the edge of the zone of inhibition)” value [8] was “did not induce a LiaRS response” and the “red/green fluorescence ratio of DiOC2 (membrane potential)” value [9] was “increase”.
